Patent publication US20040009890A1, “Broad spectrum inhibitors” (priority 2002, published 2004)

tested on: wild type and multidrug resistant HIV strains; test: Antiviral activity against wild type HIV and multidrug resistant patient isolates (PHA-PBMC, p24 Gag production); type: cell-based; conditions: patient isolates with multiple mutations; patients never exposed to the tested compounds
Source text: IC50 's for broad spectrum protease inhibitors can be measured against wild type HIV and clinically isolated mutant HIV isolates, utilizing the PHA-PBMC exposed to HIV-1 (50 TCID50 dose/[…] PBMC) as target cells and using the inhibition of p24 Gag protein production as an endpoint. The amounts of p24 antigen produced by the cells can be determined on day 7 in culture using a commercially available radioimmunoassay kit.

SMILES | antiviral activity against HIV derived from patient isolates that contain multiple mutations, compared with wild type HIV strains
COc1ccc(S(=O)(=O)N(CC(C)C)C[C@@H](O)[C@H](Cc2ccccc2)NC(=O)O[C@H]2CO[C@H]3OCC[C@H]32)cc1 [Compound 1] | equivalent to their activity against wild type HIV strains
CC(C)CN(C[C@@H](O)[C@H](Cc1ccccc1)NC(=O)O[C@H]1CCOC1)S(=O)(=O)c1ccc(N)cc1 [Compound 2, Amprenavir] | much less effective against the same mutant viruses

same assay, conditions: wild type vs multidrug resistant HIV strains

SMILES | antiviral potency against multidrug resistant HIV strains compared with wild type
COc1ccc(S(=O)(=O)N(CC(C)C)C[C@@H](O)[C@H](Cc2ccccc2)NC(=O)O[C@H]2CO[C@H]3OCC[C@H]32)cc1 [Compound 1] | equally effective against wild type and mutant HIV strains
CC(C)CN(C[C@@H](O)[C@H](Cc1ccccc1)NC(=O)O[C@H]1CCOC1)S(=O)(=O)c1ccc(N)cc1 [Compound 2, Amprenavir] | dramatically less potent against the multidrug resistant strains of HIV
CC(C)(C)NC(=O)[C@@H]1C[C@@H]2CCCC[C@@H]2CN1C[C@@H](O)[C@H](Cc1ccccc1)NC(=O)[C@H](CC(N)=O)NC(=O)c1ccc2ccccc2n1 [Compound 4, Saquinavir] | dramatically less potent against the multidrug resistant strains of HIV
CC(C)c1nc(CN(C)C(=O)N[C@H](C(=O)N[C@@H](Cc2ccccc2)C[C@H](O)[C@H](Cc2ccccc2)NC(=O)OCc2cncs2)C(C)C)cs1 [Compound 5, Ritonavir] | dramatically less potent against the multidrug resistant strains of HIV
CC(C)(C)NC(=O)[C@@H]1CN(Cc2cccnc2)CCN1C[C@@H](O)C[C@@H](Cc1ccccc1)C(=O)N[C@H]1c2ccccc2C[C@H]1O [Compound 6, Indinavir] | dramatically less potent against the multidrug resistant strains of HIV
Cc1c(O)cccc1C(=O)N[C@@H](CSc1ccccc1)[C@H](O)CN1C[C@H]2CCCC[C@H]2C[C@H]1C(=O)NC(C)(C)C [Compound 7, Nelfinavir] | dramatically less potent against the multidrug resistant strains of HIV
